This is an account of results in ChEMBL document CHEMBL1149998, “Tannins as selective inhibitors of protein kinase C” (Bioorg Med Chem Lett, 1992).

Assay [1] addresses Protein kinase C, PKC; classical/novel (Homo sapiens) (UniProt O94806+P17252+P05129+Q05655+P05771+Q02156+P24723+Q15139+Q04759). In words: Displacement of phorbol [3H]PDBu from protein kinase C; A - Did displace phorbol (PDBu) at 50 uM or less. It is filed as protein assay.
The target in assay [2] is Protein kinase C (PKC). In words: Inhibitory activity against protein kinase C (PKC). Type of assay: protein assay, Homo sapiens.
Assay [3] is described as follows: Inhibitory activity against c-AMP kinase; Did not inhibit c-AMP kinase.

The term IC50 denotes the concentration that gives 50% inhibition.

`O=C(O[C@@H]1[C@@H](c2c(O)cc(O)c3c2O[C@H](c2ccc(O)c(O)c2)[C@H](OC(=O)c2cc(O)c(O)c(O)c2)C3)c2c(O)cc(O)cc2O[C@@H]1c1ccc(O)c(O)c1)c1cc(O)c(O)c(O)c1` displayed a Phorbol displacement in assay [1] below 50 µM. The IC50 in assay [2] is 4 µM; in assay [3], “Not Active”.

On to `O=C(O[C@H]1[C@H](O)C[C@](OC(=O)c2cc(O)c(O)c(O)c2)(C(=O)O)C[C@H]1O)c1cc(O)c(O)c(O)c1`, for which the figures for the IC50 in assay [2] and in assay [3] were above 100 µM and “Not Active”, respectively.

With `O=C(OC[C@H]1O[C@@H](OC(=O)c2cc(O)c(O)c(O)c2)[C@H](OC(=O)c2cc(O)c(O)c(O)c2)[C@@H](O)[C@@H]1O)c1cc(O)c(O)c(O)c1`, the IC50 in assay [2] was above 100 µM.

For the compound `O=C1O[C@H]2[C@@H]3OC(=O)c4cc(O)c(O)c(O)c4-c4c(cc(O)c(O)c4O)C(=O)OC[C@H]2O[C@H](OC(=O)c2cc(O)c(O)c(O)c2)[C@@H]3OC(=O)c2cc(O)c(O)c3c2C2C1=CC(=O)C(O)(O)C2(O)O3` (stereo partly drawn), the IC50 in assay [2] is 11 µM; in assay [3] it was “Not Active”.

`O=C(O[C@@H]1O[C@@H]2COC(=O)c3cc(O)c(O)c(O)c3-c3c(cc(O)c(O)c3O)C(=O)O[C@H]([C@H]1OC(=O)c1cc(O)c(O)c(O)c1)[C@@H]2OC(=O)c1cc(O)c(O)c(O)c1)c1cc(O)c(O)c(O)c1` [PUNICAFOLIN] registered a Phorbol displacement in assay [1] below 50 µM. For the same compound, the IC50 in assay [2] is 4 µM; in assay [3], “Not Active”.

In assay [2], `O=C(O[C@@H]1C[C@](O)(C(=O)O)C[C@@H](OC(=O)c2cc(O)c(O)c(O)c2)[C@H]1OC(=O)c1cc(O)c(O)c(O)c1)c1cc(O)c(O)c(O)c1` registered an IC50 above 100 µM.

For `O=C1OCC2OC(=O)c3cc(O)c(O)c(O)c3-c3c(O)c(O)c(O)c4c3C(=O)OC(C2OC(=O)c2cc(O)c(O)c(O)c2-c2c1cc(O)c(O)c2O)C1OC(=O)c2c-4c(O)c(O)c(O)c2[C@H]1O` (stereo partly drawn), the Phorbol displacement in assay [1] was below 50 µM. Moreover, the IC50 was 8 µM in assay [2] and “Not Active” in assay [3].

Consider `O=C(O)C1=C[C@@H](OC(=O)c2cc(O)c(O)c(O)c2)[C@@H](O)[C@H](OC(=O)c2cc(O)c(O)c(O)c2)C1`, for which the half-inhibitory concentration (IC50) in assay [2] is above 100 µM.

For the compound `Oc1cc(O)c2c(c1)O[C@H](c1ccc(O)c(O)c1)C(O)C2` (stereo partly drawn), the half-maximal inhibitory concentration (IC50) in assay [2] is above 100 µM.

Turning to `O=C1OC2COC(=O)c3cc(O)c(O)c(O)c3-c3c(O)c(O)c4oc(=O)c5c(c(O)c(O)c6oc(=O)c3c4c65)-c3c(cc(O)c(O)c3O)C(=O)OC2C2OC(=O)c3c(c(O)c(O)c(O)c3-c3c(O)c(O)c(O)c4c3C(=O)OC2[C@@H]4O)-c2c1cc(O)c(O)c2O` (stereo partly drawn), the IC50 in assay [2] was 4 µM.

As to `O=C1O[C@H]2[C@H](O)[C@@H](OC(=O)c3cc(O)c(O)c4c3C3C1=CC(=O)C(O)(O)C3(O)O4)[C@@H](OC(=O)c1cc(O)c(O)c(O)c1)O[C@@H]2CO` (stereo partly drawn), in assay [2], the concentration for half-maximal inhibition (IC50) stood at 86 µM. Against the preceding compound, the IC50 is about 22-fold higher.

Turning to `O=C(O)C[C@@H]1C(=O)O[C@H]2[C@@H]3OC(=O)c4cc(O)c(O)c(O)c4-c4c(cc(O)c(O)c4O)C(=O)OC[C@H]2O[C@@H](OC(=O)c2cc(O)c(O)c(O)c2)[C@@H]3OC(=O)c2cc(O)c(O)c3c2[C@H]1[C@H](O)C(=O)O3` [CHEBULAGIC ACID], in assay [2], the concentration for half-maximal inhibition (IC50) was determined as 30 µM.

Compound `CC1(C)CC[C@]2(C(=O)O[C@@H]3O[C@H](CO)[C@@H](O)[C@H](O)[C@H]3O)CC[C@]3(C)C(=CC[C@@H]4[C@@]5(C)C[C@@H](O)[C@@H]6OC(=O)c7cc(O)c(O)c(O)c7-c7c(cc(O)c(O)c7O)C(=O)OC[C@@]6(CO)C5CC[C@]43C)C2C1` (stereo partly drawn) displayed a Phorbol displacement in assay [1] below 50 µM. For the same compound, the figures for the 50% inhibitory concentration (IC50) in assay [2] and in assay [3] were 18 µM and “Not Active”, respectively.

On to `O=C(O)C1=C[C@@H](O)[C@@H](O)[C@H](OC(=O)c2cc(O)c(O)c(OC(=O)c3cc(O)c(O)c(O)c3)c2)C1`, for which the 50% inhibitory concentration (IC50) in assay [2] is above 100 µM.

As to `Oc1cc(O)c2c(c1)O[C@@]1(c3ccc(O)c(O)c3)Oc3cc(O)c4c(c3C2[C@H]1O)O[C@H](c1ccc(O)c(O)c1)[C@H](O)C4c1c(O)cc(O)c2c1O[C@H](c1ccc(O)c(O)c1)[C@H](O)C2` (stereo partly drawn), the Phorbol displacement in assay [1] was below 50 µM. In addition, the results for the IC50 in assay [2] and in assay [3] were 30 µM and “Not Active”, respectively.

Regarding `O=C(O[C@@H]1C[C@](OC(=O)c2cc(O)c(O)c(O)c2)(C(=O)O)C[C@@H](OC(=O)c2cc(O)c(O)c(O)c2)[C@H]1OC(=O)c1cc(O)c(O)c(O)c1)c1cc(O)c(O)c(O)c1`, the Phorbol displacement in assay [1] is below 50 µM. The results for the IC50 in assay [2] and in assay [3] were 64 µM and “Not Active”, respectively.

In assay [1], `C=C1O[C@H]2[C@@H]3OC(=O)c4cc(O)c(O)c(O)c4-c4c(cc(O)c(O)c4O)C(=O)OC[C@H]2O[C@@H](OC(=O)c2cc(O)c(O)c(O)c2)[C@@H]3OC(=O)c2cc(O)c(O)c3c2C2C(O)(O3)C3(O)OC4(C(=O)OC5C(O)COC54O)C12CC3=O` (stereo partly drawn) gave a Phorbol displacement below 50 µM. Further, the half-inhibitory concentration (IC50) in assay [2] was 17 µM; in assay [3] it was “Not Active”.

`O=C(OC[C@H]1O[C@@H](OC(=O)c2cc(O)c(O)c(O)c2)[C@H](OC(=O)c2cc(O)c(O)c(O)c2)[C@@H](OC(=O)c2cc(O)c(O)c(O)c2)[C@@H]1OC(=O)c1cc(O)c(O)c(O)c1)c1cc(O)c(O)c(O)c1` [PENTAGALLOYL GLUCOSE] had a Phorbol displacement in assay [1] below 50 µM. The same compound registered a half-maximal inhibitory concentration (IC50) in assay [2] of 4 µM.

Consider `O=C(O)C[C@@H]1C(=O)O[C@H]2[C@H](OC(=O)c3cc(O)c(O)c(O)c3)[C@@H](OC(=O)c3cc(O)c(O)c4c3[C@H]1[C@H](O)C(=O)O4)[C@@H](OC(=O)c1cc(O)c(O)c(O)c1)O[C@@H]2COC(=O)c1cc(O)c(O)c(O)c1`, for which, in assay [2], the half-inhibitory concentration (IC50) came out at 30 µM.

With `CC1(C)CC[C@]2(C(=O)O)CC[C@]3(C)C(=CCC4[C@@]5(C)C[C@@H](O)[C@@H]6OC(=O)c7cc(O)c(O)c(O)c7-c7c(cc(O)c(O)c7O)C(=O)OC[C@@]6(CO)C5CC[C@]43C)C2C1` (stereo partly drawn), the Phorbol displacement in assay [1] was below 50 µM. In addition, the IC50 was 23 µM in assay [2] and “Not Active” in assay [3].

`O=C(O[C@@H]1O[C@H](CO)[C@@H](O)[C@H](O)[C@H]1O)c1cc(O)c(O)c(O)c1` came in with an IC50 in assay [2] above 100 µM.

With `O=C(O[C@H]1[C@H](O)C[C@](OC(=O)c2cc(O)c(O)c(O)c2)(C(=O)O)C[C@H]1OC(=O)c1cc(O)c(O)c(O)c1)c1cc(O)c(O)c(O)c1`, the Phorbol displacement in assay [1] was below 50 µM. Also, the IC50 is above 100 µM in assay [2] and “Not Active” in assay [3].

In assay [1], `O=C1O[C@H]2[C@H](OC(=O)c3cc(O)c(O)c(O)c3)[C@@H](OC(=O)c3cc(O)c(O)c4c3C3C1=CC(=O)C(O)(O)C3(O)O4)[C@@H](OC(=O)c1cc(O)c(O)c(O)c1)O[C@@H]2COC(=O)c1cc(O)c(O)c(O)c1` (stereo partly drawn) showed a Phorbol displacement below 50 µM. Also, the IC50 is 16 µM in assay [2] and “Not Active” in assay [3].

Take `O=C(OC1Cc2c(O)cc(O)c([C@H]3c4c(O)cc(O)c([C@H]5c6c(O)cc(O)cc6O[C@H](c6ccc(O)c(O)c6)[C@@H]5OC(=O)c5cc(O)c(O)c(O)c5)c4O[C@H](c4ccc(O)c(O)c4)C3OC(=O)c3cc(O)c(O)c(O)c3)c2O[C@@H]1c1ccc(O)c(O)c1)c1cc(O)c(O)c(O)c1` (stereo partly drawn): the Phorbol displacement in assay [1] was below 50 µM. Further, the results for the IC50 in assay [2] and in assay [3] were 2 µM and “Not Active”, respectively.

`O=C(O[C@@H]1O[C@@H]2COC(=O)c3cc(O)c(O)c(O)c3-c3c(cc(O)c(O)c3O)C(=O)O[C@H]([C@H]1O)[C@@H]2O)c1cc(O)c(O)c(O)c1` [CORILAGIN] had an IC50 in assay [2] of 20 µM.

Take `O=C(O)C1=C[C@@H](O)[C@@H](O)[C@H](OC(=O)c2cc(O)c(O)c(O)c2)C1`: the half-inhibitory concentration (IC50) in assay [2] is above 100 µM.

The compound `O=C(OC1Cc2c(O)cc(O)cc2O[C@@H]1c1ccc(O)c(O)c1)c1cc(O)c(O)c(O)c1` (stereo partly drawn) yielded a Phorbol displacement in assay [1] below 50 µM. The IC50 is 48 µM in assay [2] and “Not Active” in assay [3].

For the compound `O=C(O[C@H]1[C@H](O)C[C@](O)(C(=O)O)C[C@H]1O)c1cc(O)c(O)c(O)c1`, the concentration for half-maximal inhibition (IC50) in assay [2] was above 100 µM.

As to `Oc1cc(O)c2c(c1)O[C@H](c1ccc(O)c(O)c1)C(O)[C@H]2c1c(O)cc(O)c2c1O[C@H](c1ccc(O)c(O)c1)C(O)C2` (stereo partly drawn), in assay [2], the half-inhibitory concentration (IC50) is above 100 µM.

For `O=C(OC[C@H]1O[C@H](OC(=O)c2cc(O)c(O)c(O)c2)[C@H](OC(=O)c2cc(O)c(O)c(O)c2)[C@@H](OC(=O)c2cc(O)c(O)c(O)c2)[C@@H]1O)c1cc(O)c(O)c(O)c1`, the Phorbol displacement in assay [1] is below 50 µM. Moreover, the IC50 in assay [2] was 20 µM; in assay [3] it was “Not Active”.

In assay [1], `O=C(OC[C@H]1O[C@@H](O)[C@H](OC(=O)c2cc(O)c(O)c(O)c2)[C@@H](OC(=O)c2cc(O)c(O)c(O)c2)[C@@H]1OC(=O)c1cc(O)c(O)c(O)c1)c1cc(O)c(O)c(O)c1` had a Phorbol displacement below 50 µM. The IC50 in assay [2] is 82 µM; in assay [3] it was “Not Active”.

In the case of `O=C(OC[C@H]1O[C@H](OC(=O)c2cc(O)c(O)c(O)c2)[C@H](O)[C@@H](O)[C@@H]1OC(=O)c1cc(O)c(O)c(O)c1)c1cc(O)c(O)c(O)c1`, in assay [2], the IC50 was above 100 µM.

As to `O=C(OC[C@H]1OC(O)[C@@](O)(COC(=O)c2cc(O)c(O)c(O)c2)[C@@H]1O)c1cc(O)c(O)c(O)c1` (stereo partly drawn) [HAMAMELITANNIN], the 50% inhibitory concentration (IC50) in assay [2] was above 100 µM.

In assay [2], `O=C(OC[C@H]1O[C@@H](OC(=O)c2cc(O)c(O)c(O)c2)[C@H](O)[C@@H](O)[C@@H]1O)c1cc(O)c(O)c(O)c1` displayed a concentration for half-maximal inhibition (IC50) above 100 µM.

The compound `Oc1cc(O)c2c(c1)O[C@@]1(c3ccc(O)c(O)c3)Oc3cc(O)c4c(c3C2[C@H]1O)O[C@H](c1ccc(O)c(O)c1)[C@H](O)C4` had a half-inhibitory concentration (IC50) in assay [2] above 100 µM.

In turn, `O=C(OC[C@H]1O[C@H](O)[C@@](O)(COC(=O)c2cc(O)c(O)c(O)c2)[C@@H]1OC(=O)c1cc(O)c(O)c(O)c1)c1cc(O)c(O)c(O)c1` returned an IC50 in assay [2] above 100 µM.

`CC1O[C@H](O)C2OC(=O)c3cc(O)c(O)c(O)c3-c3c(cc(O)c(O)c3O)C(=O)OC2C1O` (stereo partly drawn): the IC50 in assay [2] was above 100 µM.
